US20110287080A1, “COATING II” (SMITH & NEPHEW PLC, priority 2008, published 2011)

Experiment: Elution of rapamycin from polymer-coated stents into PBS at 37° C., monitored by UV/vis
Type: physicochemical
Conditions: stent coating with 25% rapamycin, cumulative absorbance at 279 nm
Protocol: Solutions were prepared by dissolving the polymers listed in Table 1 in CHCl3 with 25% (by weight of the solid polymer) rapamycin. After cooling for 5 minutes, the stents were attached to a mandrel and coated on the Sonotek MediCoat Benchtop Coater with a 0.5% w/w solution in CHCl3 of polymer/drug (75/25). The parameters used were: 0.09 ml/min flow rate, 1.0 W ultrasonic power, 16 passes, 40 rpm rotation, 0.13 cm/s horizontal travel and 25 mm from stent to spray head. After coating, the stents were dried under vacuum for 16 hours at 40° C. The stents were released into phosphate buffered saline solution (PBS) at 37° C. and the elution monitored by UV/vis spectroscopy. Fresh buffer solution was added after each reading and the cumulative absorbance at 279 nm was recorded.

Compound: CCCCCCCCCCCC(=O)O [lauric acid]
- rate of release (elution) of rapamycin: minimal affect on the rate of release of rapamycin
